Reference: patent publication US8399509B2, “Glucopyranoside derivatives” (Merck Patent Gesellschaft mit beschrankter Haftung, priority 2008, dated 2013)

What was measured:
SGLT2 = biological target: T1, SGLT2 (Homo sapiens, UniProt P31639); test: 14C-AMG uptake in BHK cells transfected with SGLT2; assay type: cell-based; conditions: 2 mM AMG, 37° C., 90 min
T1 construct: expressed in transfected cells
T1 sequence (P31639 1-672): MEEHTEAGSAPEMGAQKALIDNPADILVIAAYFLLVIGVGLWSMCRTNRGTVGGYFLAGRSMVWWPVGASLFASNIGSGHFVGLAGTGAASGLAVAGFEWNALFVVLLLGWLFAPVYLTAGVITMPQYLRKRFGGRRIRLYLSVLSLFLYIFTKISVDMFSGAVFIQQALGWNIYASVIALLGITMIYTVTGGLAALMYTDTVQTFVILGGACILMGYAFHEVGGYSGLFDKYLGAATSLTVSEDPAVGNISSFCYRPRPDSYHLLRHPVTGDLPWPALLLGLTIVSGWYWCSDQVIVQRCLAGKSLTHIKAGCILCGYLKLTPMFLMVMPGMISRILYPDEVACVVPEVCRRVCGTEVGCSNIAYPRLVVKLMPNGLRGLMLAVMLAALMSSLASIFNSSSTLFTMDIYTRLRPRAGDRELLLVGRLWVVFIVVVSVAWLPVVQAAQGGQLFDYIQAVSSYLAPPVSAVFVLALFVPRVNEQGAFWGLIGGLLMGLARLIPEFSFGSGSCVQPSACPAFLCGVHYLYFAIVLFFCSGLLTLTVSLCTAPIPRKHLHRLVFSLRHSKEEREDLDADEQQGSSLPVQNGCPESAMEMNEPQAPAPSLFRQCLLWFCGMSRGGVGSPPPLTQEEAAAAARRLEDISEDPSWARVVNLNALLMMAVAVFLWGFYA
Source text: (§1) The compounds can be tested for their SGLT inhibition properties by means of BHK cells expressing SGLT1 and SGLT2. The production of the cells and the testing can be carried out as described below.
Construction and Expression of SGLT2 in BHK Cells
To construct the SGLT2 expression vector (KL224), the SLC5A2 gene (homologous to NM_003041) was amplified from a cDNA library using standard PCR technology and cloned over NheI/XhoI sites into PCI-neo expression vector (Promega) containing neomycin as a selection marker. In this vector, transcription uses the enhancer/promoter of human cytomegalovirus and the SV40 polyadenylation signal.
(§2) The final vector KL224 together with an additional vector containing a dihydrofolate reductase gene as a selection marker was introduced into cells. Transfection into BHK21 cells (ATCC CCL-10), cultivated in DMEM medium (GIBCO/BRL), supplemented with 10% foetal calf serum (FCS) and 20 mM glutamine, was carried out using calcium phosphate transfections according to Graham, F. L. and van der Ebb, A. J. (1973), Virology 52: 456 with 5-20 μg of uncut plasmids for 10^7 cells. Stable transfectants were selected in medium containing 1 mg/ml of G418 (GIBCO/BRL) and 20-5000 nM methotrexate as final concentration, where only cells which expressed the neomycin gene and overexpressed the dhfr gene were able to grow. After growth for 2-3 weeks, the cells were cloned (0.5 cells/well) and the clones were investigated for SGLT expression in radioactivity uptake tests.
(§3) Method of SGLT1/2 Activity Measurement
(§4) The uptake of ^14C-α-methyl-D-glucopyranoside (AMG) in, for example, Xenopus oocytes injected with the corresponding cRNA has been described in principle (for example Wen-Sen Lee et al. (1994), J. Biol. Chem. 269, 12032-12039; Guofeng You et al. (1995), J. Biol. Chem. 270, 29365-29371).
(§5) A 96-well cell-based assay was developed and adapted to HTS requirements:
(§6) BHK cells (transfected with SGLT1 or SGLT2) were seeded into 96-well microtitre plates (Cultureplates, Perkin Elmer). After at least 24 h, medium was removed, and the cell layer was washed with assay buffer (140 mM NaCl, 2 mM KCl, 1 mM CaCl2, 1 mM MgCl2, 10 mM HEPES, 5 mM Tris, adjusted to pH 7.4 using 1 M KOH). After addition of 40 μl of assay buffer, 50 μl of AMG (50 μM for SGLT1 and 2 mM for SGLT2) in the presence or absence of compounds, the cells were incubated in a total volume of 100 μl at 37° C. for 90 min. Supernatant was removed by suction and discarded. Cells were washed and lysed by addition of 50 μl of water. After 10 min at room temperature, 200 μl of Micrsoscint 40 (Perkin Elmer) were added. The radioactivity was counted in a Topcount microplate scintillation counter (Perkin Elmer). The non-specific uptake was determined in sodium-free assay buffer (266 mM sucrose, 2 mM KCl, 1 mM CaCl2, 1 mM MgCl2, 10 mM HEPES, 5 mM Tris, adjusted to pH 7.4 using 1 M KOH).

SGLT1 = biological target: T2, SGLT1 (Homo sapiens, UniProt P13866); test: 14C-AMG uptake in BHK cells transfected with SGLT1; assay type: cell-based; conditions: 50 μM AMG, 37° C., 90 min
T2 construct: expressed in transfected cells
T2 sequence (P13866 1-664): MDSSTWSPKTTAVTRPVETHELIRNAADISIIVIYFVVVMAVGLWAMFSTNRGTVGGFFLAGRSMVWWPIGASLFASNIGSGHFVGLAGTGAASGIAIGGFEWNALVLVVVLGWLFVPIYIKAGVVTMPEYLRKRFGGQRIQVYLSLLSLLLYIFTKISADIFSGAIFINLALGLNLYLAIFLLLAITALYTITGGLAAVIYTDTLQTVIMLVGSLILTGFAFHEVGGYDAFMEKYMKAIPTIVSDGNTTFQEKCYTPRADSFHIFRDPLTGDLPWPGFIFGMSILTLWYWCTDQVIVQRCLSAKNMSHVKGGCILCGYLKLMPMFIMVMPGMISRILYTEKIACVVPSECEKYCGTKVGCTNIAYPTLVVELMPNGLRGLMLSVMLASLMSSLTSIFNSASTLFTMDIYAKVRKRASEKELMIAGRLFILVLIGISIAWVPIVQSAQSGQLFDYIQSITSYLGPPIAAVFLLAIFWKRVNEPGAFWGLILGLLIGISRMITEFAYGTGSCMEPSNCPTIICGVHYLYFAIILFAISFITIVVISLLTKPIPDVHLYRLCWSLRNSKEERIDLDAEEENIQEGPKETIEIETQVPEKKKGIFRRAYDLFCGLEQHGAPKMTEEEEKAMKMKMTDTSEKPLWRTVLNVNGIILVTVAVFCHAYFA
Source text: as §1
Construction and Expression of SGLT1 in BHK Cells
To construct the SGLT1 expression vector (KL225), the SLC5A1 gene (homologous to NM_000343) was amplified from a cDNA library using standard PCR technology and cloned over NheI/XhoI sites into the pcDNA3.1 expression vector (Invitrogen) containing neomycin as a selection marker. In this vector, transcription uses the enhancer/promoter of human cytomegalovirus.
as §2, with “KL225” for “KL224”
as §3, §4, §5, §6

IC50 (SGLT2) | IC50 (SGLT1) | Compound
1 to 10 µM | > 10 µM | 5-(β-D-Glucopyranos-1-yl)-3-(4-methoxyphenyl)benzofuran [Compound A7]
> 10 µM | > 10 µM | 5-(β-D-glucopyranos-1-yl)-2-(4-methoxyphenyl)benzofuran [Compound A8]
> 10 µM | > 10 µM | 6-(β-D-glucopyranos-1-yl)-1R-(4-methoxyphenyl)indane [Compound A3]
> 10 µM | > 10 µM | 6-(β-D-glucopyranos-1-yl)-3R-(4-methoxyphenyl)indane [Compound A14]
0.01 to 1 µM | > 10 µM | COc1ccc(C2CCc3ccc([C@@H]4O[C@H](CO)[C@@H](O)[C@H](O)[C@H]4O)cc32)cc1 (stereo partly drawn) [Compound A1, 6-(β-D-glucopyranos-1-yl)-1-(4-methoxyphenyl)indane]
0.01 to 1 µM | > 10 µM | COc1ccc([C@@H]2CCc3ccc([C@@H]4O[C@H](CO)[C@@H](O)[C@H](O)[C@H]4O)cc32)cc1 [Compound A2, 6-(β-D-glucopyranos-1-yl)-1S-(4-methoxyphenyl)indane]
0.01 to 1 µM | > 10 µM | CCOc1ccc(C2CCc3ccc([C@@H]4O[C@H](CO)[C@@H](O)[C@H](O)[C@H]4O)cc32)cc1 (stereo partly drawn) [Compound A4, 6-(β-D-Glucopyranos-1-yl)-1-(4-ethoxyphenyl)indane]
0.01 to 1 µM | > 10 µM | COc1ccc(C2CCCc3ccc([C@@H]4O[C@H](CO)[C@@H](O)[C@H](O)[C@H]4O)cc32)cc1 (stereo partly drawn) [Compound A5, 7-(β-D-Glucopyranos-1-yl)-1-(4-methoxyphenyl)-1,2,3,4-tetrahydro-naphthalene]
> 10 µM | > 10 µM | COc1ccc(C2=CCCc3ccc([C@]4(OC)O[C@H](CO)[C@@H](O)[C@H](O)[C@H]4O)cc32)cc1 [Compound A6, 7-(1-Methoxy-D-glucopyranos-1-yl)-1-(4-methoxyphenyl)-3,4-dihydronaphthalene]
0.01 to 1 µM | > 10 µM | COc1ccc(C2COc3ccc([C@@H]4O[C@H](CO)[C@@H](O)[C@H](O)[C@H]4O)cc32)cc1 (stereo partly drawn) [Compound A9, 5-(β-D-Glucopyranos-1-yl)-3-(4-methoxyphenyl)-2,3-dihydrobenzofuran]
> 10 µM | > 10 µM | CCOc1ccc(-n2ccc3ccc([C@@H]4O[C@H](CO)[C@@H](O)[C@H](O)[C@H]4O)cc32)cc1 [Compound A12, 6-(β-D-Glucopyranos-1-yl)-1-(4-ethoxyphenyl)indole]
0.01 to 1 µM | > 10 µM | COc1ccc([C@@H]2COc3ccc([C@@H]4O[C@H](CO)[C@@H](O)[C@H](O)[C@H]4O)cc32)cc1 [Compound A13]
